{
  "source": "patent US11369609B2",
  "about": "“Small molecule Wnt inhibitor as treatment for dyslipidemia” (Yale University, priority 2019, dated 2022)",
  "test_system": "canonical Wnt signaling",
  "experiment": "Atherosclerosis in high fat diet-fed Apoe−/− and DKO TCF/Lef-LacZ mice",
  "format": "in vivo",
  "excerpt": "Apoe −/− and endothelial GR KO/Apo E KO double knockout (DKO) mice were fed a high fat diet containing 1.25% cholesterol (Research Diets) for the time indicated. In some experiments, animals of both genotype were bred to the BAT-GAL (ß-catenin/TCF/LEF) reporter transgenic mouse. Mice were sacrificed and the aortas removed. Aortas were stained with X-galactosidase (Sigma-Aldrich) according to the manufacturer's instructions. In other aortas, total RNA was extracted and cDNA was made as described above. The custom PCR array was used to evaluate pathways of interest as described. All studies were performed according to a protocol approved by the Institutional Care and use Committee at Yale University School of Medicine and were consistent with the National Institutes of Health Guidelines for the Care of Laboratory Animals.\nMice were fasted for 12-15 hours and blood was collected by retro-orbital venous puncture. Whole blood was spun down and plasma stored at −80° C. Total cholesterol and triglyceride levels were measured enzymatically by kits from Wako and Sigma, respectively, according to the manufacturer's instructions.\nAt the completion of high-fat diet feeding mice were anesthetized and euthanized. Mouse hearts were perfused with PBS and then 4% paraformaldehyde (PFA) and the aortas and were dissected out using a dissecting microscope and maintained in PFA overnight. Whole aortas were stained with Oil Red O (Sigma) to quantify lesion area. Oil Red O stock solution (35 ml, 0.2% weight/volume in methanol) was mixed with 10 ml 1 M NaOH and filtered. Aortas were briefly rinsed in 78% methanol, incubated in Oil Red O for 45 minutes and then destained in 78% methanol for 5 minutes and mounted on microscopic slides. Lipid staining and lesion size were quantified by averaging six sections from the same mouse using the IMAGE J program.\nIn order to visualize the activation of canonical Wnt signaling, Apoe^−/−, GR^fl/fl, Tie2 Cre−; TCF/Lef-LacZ (Apoe^−/−) mice were bred with Apoe^−/−, GR^fl/fl, Tie2 Cre+; TCF/Lef-LacZ (DKO) mice. Apoe^−/− and DKO mice were fed a high fat diet (HFD) for 12 weeks. The Wnt inhibitor (wnti) LGK974 at a dose of 5 mg/kg body weight, or vehicle, was administered 6 days/week by oral gavage from 4-12 weeks. The aortas of vehicle-treated control animals and wnti-treated animals (n=6-7/group) were stained for LacZ (FIG. 11B). A LacZ(−) aorta was included as a control. […] Aortic area stained is quantified in the corresponding graph (FIG. 11B). Body weight of the animals of both genotypes with and without Wnti treatment was measured. […] Triglycerides, total cholesterol and HDL cholesterol were measured after 12 weeks of diet feeding in animals of both genotypes in the presence of absence of Wnti. […] Lipid deposition in aortas of wnti- or vehicle-treated Apoe^−/− and DKO treated mice was analyzed by Oil Red O staining. Atherogenic lesion area was calculated by using the Image J program. […] Masson Trichrome and H&E staining was performed in the brachiocephalic artery of Wnti- or sham-treated Apoe^−/− and DKO treated mice (FIG. 11F). Lesion size was measured using Image J program.",
  "key": {"[1]": {"details": "5 mg/kg oral gavage 6 days/week, weeks 4-12 of HFD, both genotypes"}},
  "note": "Entries after “also recorded” stand apart in the source; their conditions may differ.",
  "data": [
    {"compound": "Cc1cc(-c2ncc(CC(=O)Nc3ccc(-c4cnccn4)cn3)cc2C)ccn1", "note": "[LGK974]", "values": [
      {"measurement": "atherosclerosis prognosis / atherogenic phenotype", "setting": "5 mg/kg oral gavage 6 days/week, weeks 4-12 of HFD", "value": "significantly improves the atherogenic phenotype; also recorded: surprising improvement in atherosclerosis prognosis"},
      {"measurement": "activation of canonical Wnt signaling (LacZ staining in aortas)", "setting": "[1]", "value": "clearly attenuated"},
      {"measurement": "body weight", "setting": "[1]", "value": "no weight loss"},
      {"measurement": "lesion size in brachiocephalic arteries", "setting": "Masson Trichrome and H&E staining", "value": "dramatically reduced lesion size"},
      {"measurement": "cholesterol", "setting": "after 12 weeks of HFD, both genotypes", "value": "dramatic reduction in cholesterol; also recorded: enormous"},
      {"measurement": "lipid deposition in aortas (Oil Red O staining)", "setting": "both genotypes", "value": "dramatic reduction in lipid deposition"},
      {"measurement": "decrease in cholesterol levels", "setting": "in vivo use in atherogenic mouse model", "value": "about 50%"},
      {"measurement": "H&E and Oil Red O staining in the aortic root of heart sections", "setting": "mouse, in vivo", "value": "histological improvement"}
    ]}
  ]
}
